# Test results as given in patent publication US11759461B2, “Small molecule inhibitors of cancer stem cells and mesenchymal cancer types” (The Scripps Research Institute, priority 2017, dated 2023).
# pIC50: −log10 of the molar value.
# Tested on: FOXC2-expressing HMLER cells
# Assay: Cell Titer Glo viability of FOXC2-HMLER cells (high throughput screen and 10-point response)
# Assay type: cell-based
# Conditions: Homo sapiens; scored relative to parent compound 2; 72 hours; read-out: Activity Score, inhibition of FOXC2-expressing HMLER cells by Formula II compounds
# Method in brief: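 Viability after 72 h compound exposure was measured as Cell Titer Glo luminescence. FOXC2-HMLER and parental HMLER cells, 1,000 per well in MEGM medium, were dosed 1 h after plating; screening concentration was 2 μM.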
row,SMILES,pIC50
1,CCOc1ccc(NC(=O)Cn2c(=O)c(CNc3ccc(CC)cc3)cc3ccc(OC)cc32)cc1 [Compound 2Z],4.70 to 6.00
2,COC(=O)c1ccccc1NC(=O)Cn1c(=O)c(CNc2ccccc2)cc2ccc(OC)cc21 [Compound 2],> 6.00

# Same assay, conditions: Homo sapiens; scored relative to parent compound 3; 72 hours; read-out: Activity Score, inhibition of FOXC2-expressing HMLER cells by Formula III compounds
row,SMILES,pIC50
1,Cc1ccc(C(=O)N2CCN(c3ccc(F)cc3)CC2)cc1-n1nnc2cccnc21 [Compound 3AA],4.70 to 6.00
2,Cc1ccc(CN2CCC(CNC(=O)c3ccc(C)c(-n4nnc5cccnc54)c3)CC2)cc1 [Compound 3AB],4.70 to 6.00
3,Cc1ccc(C)c(N2CCN(CCCNC(=O)c3ccc(C)c(-n4nnc5cccnc54)c3)CC2)c1 [Compound 3AC],4.70 to 6.00
4,Cc1ccc(Cl)cc1N1CCN(C(=O)c2cccc(-n3nnc4cccnc43)c2C)CC1 [Compound 3AD],4.70 to 6.00
5,Cc1c(C(=O)NC2CC2)cccc1-n1nnc2cccnc21 [Compound 3AE],4.70 to 6.00
6,Cc1c(C(=O)N2CCC(Cc3ccccc3)CC2)cccc1-n1nnc2cccnc21 [Compound 3AF],4.70 to 6.00
7,Cc1ccc(C)c(N2CCN(CCCNC(=O)c3cccc(-n4nnc5cccnc54)c3C)CC2)c1 [Compound 3AH],4.70 to 6.00
8,O=C(c1ccc(-n2nnc3cccnc32)cc1)N1CCC(Cc2ccccc2)CC1 [Compound 3AI],4.70 to 6.00
9,Cc1c(C(=O)N2CCN(c3ccccc3)CC2)cccc1-n1nnc2cccnc21 [Compound 3AJ],4.70 to 6.00
10,Cc1c(C(=O)NCCCN2CCC(Cc3ccccc3)CC2)cccc1-n1nnc2cccnc21 [Compound 3AK],4.70 to 6.00
11,CN(Cc1ccccc1)C(=O)c1ccc(-n2nnc3cccnc32)cc1 [Compound 3AL],< 4.70
12,O=C(c1ccc(-n2nnc3cccnc32)cc1)N1CCN(c2ccccc2)CC1 [Compound 3AM],< 4.70
13,O=C(c1ccc(-n2nnc3cccnc32)cc1)N1CCN(C2CCCCC2)CC1 [Compound 3AN],< 4.70
14,CCN(Cc1ccccc1)C(=O)c1ccc(-n2nnc3cccnc32)cc1 [Compound 3AO],< 4.70
15,COc1ccc(N2CCN(C(=O)c3ccc(-n4nnc5cccnc54)cc3)CC2)cc1 [Compound 3AP],< 4.70
16,Cc1cc(C(=O)N2CCC(C)CC2)ccc1-n1nnc2cccnc21 [Compound 3AQ],< 4.70
17,Cc1ccc(NC(=O)c2ccc(-n3nnc4cccnc43)c(C)c2)cc1C [Compound 3AR],< 4.70
18,COc1ccc(N2CCN(C(=O)c3ccc(-n4nnc5cccnc54)c(C)c3)CC2)cc1 [Compound 3AS],< 4.70
19,Cc1ccc(NC(=O)c2ccc(-n3nnc4cccnc43)c(C)c2)cc1 [Compound 3AT],< 4.70
20,Cc1cc(C(=O)NCCCN2CCN(C3CCCCC3)CC2)ccc1-n1nnc2cccnc21 [Compound 3AU],< 4.70

row,SMILES,pIC50
1,O=C(c1cccc(-n2nnc3cccnc32)c1)N1CCCC1 [Compound 3AV],< 4.70
2,CCCCN(CC)C(=O)c1cccc(-n2nnc3cccnc32)c1 [Compound 3AW],< 4.70
3,CCCCN(C)C(=O)c1cccc(-n2nnc3cccnc32)c1 [Compound 3AX],< 4.70
4,O=C(NC1CCN(Cc2ccccc2)CC1)c1cccc(-n2nnc3cccnc32)c1 [Compound 3AY],< 4.70
5,COc1ccc(N2CCN(C(=O)c3cccc(-n4nnc5cccnc54)c3)CC2)cc1 [Compound 3AZ],< 4.70
6,Cc1cccc(N2CCN(C(=O)c3ccc(C)c(-n4nnc5cccnc54)c3)CC2C)c1 (centres unmarked) [Compound 3A],> 6.00
7,O=C(NCCCN1CCN(Cc2ccccc2)CC1)c1cccc(-n2nnc3cccnc32)c1 [Compound 3BA],< 4.70
8,Cc1ccc(C(=O)NCc2ccccc2)cc1-n1nnc2cccnc21 [Compound 3BB],< 4.70
9,Cc1ccc(C(=O)N(C)Cc2ccccc2)cc1-n1nnc2cccnc21 [Compound 3BC],< 4.70
10,Cc1ccc(CNC(=O)c2ccc(C)c(-n3nnc4cccnc43)c2)cc1 [Compound 3BD],< 4.70
11,Cc1ccc(C(=O)N2CCN(C3CCCCC3)CC2)cc1-n1nnc2cccnc21 [Compound 3BE],< 4.70
12,Cc1cccc(CNC(=O)c2ccc(C)c(-n3nnc4cccnc43)c2)c1 [Compound 3BF],< 4.70
13,CCN(Cc1ccccc1)C(=O)c1ccc(C)c(-n2nnc3cccnc32)c1 [Compound 3BG],< 4.70
14,Cc1ccc(C(=O)NC2CCN(Cc3ccccc3)CC2)cc1-n1nnc2cccnc21 [Compound 3BH],< 4.70
15,COc1ccc(N2CCN(C(=O)c3ccc(C)c(-n4nnc5cccnc54)c3)CC2)cc1 [Compound 3BI],< 4.70
16,Cc1ccc(C(=O)NCCCN(C)Cc2ccccc2)cc1-n1nnc2cccnc21 [Compound 3BJ],< 4.70
17,Cc1ccc(C(=O)NCCCN2CCN(c3cccc(Cl)c3)CC2)cc1-n1nnc2cccnc21 [Compound 3BK],< 4.70
18,Cc1ccc(C(=O)NCCCN2CCc3ccccc3C2)cc1-n1nnc2cccnc21 [Compound 3BL],< 4.70
19,Cc1ccc(C(=O)NCc2ccc(N(C)C)cc2)cc1-n1nnc2cccnc21 [Compound 3BM],< 4.70
20,Cc1c(C(=O)NCc2ccccc2)cccc1-n1nnc2cccnc21 [Compound 3BN],< 4.70

row,SMILES,pIC50
1,Cc1c(C(=O)NC2CCCCCC2)cccc1-n1nnc2cccnc21 [Compound 3BO],< 4.70
2,Cc1c(C(=O)N2CCN(C3CCCCC3)CC2)cccc1-n1nnc2cccnc21 [Compound 3BP],< 4.70
3,Cc1cccc(CNC(=O)c2cccc(-n3nnc4cccnc43)c2C)c1 [Compound 3BQ],< 4.70
4,Cc1c(C(=O)N2CCC(N3CCCCC3)CC2)cccc1-n1nnc2cccnc21 [Compound 3BR],< 4.70
5,CCCCN(C)C(=O)c1cccc(-n2nnc3cccnc32)c1C [Compound 3BS],< 4.70
6,Cc1c(C(=O)NCC(C)c2ccccc2)cccc1-n1nnc2cccnc21 (centres unmarked) [Compound 3BT],< 4.70
7,Cc1c(C(=O)NC2CCN(Cc3ccccc3)CC2)cccc1-n1nnc2cccnc21 [Compound 3BU],< 4.70
8,Cc1c(C(=O)N2CCN(Cc3ccc4c(c3)OCO4)CC2)cccc1-n1nnc2cccnc21 [Compound 3BV],< 4.70
9,Cc1c(C(=O)N2CCN(c3ccccc3F)CC2)cccc1-n1nnc2cccnc21 [Compound 3BW],< 4.70
10,Cc1c(C(=O)NCCCN(C)Cc2ccccc2)cccc1-n1nnc2cccnc21 [Compound 3BX],< 4.70
11,Cc1c(C(=O)NCCN2CCCC2)cccc1-n1nnc2cccnc21 [Compound 3BY],< 4.70
12,COc1ccc(N2CCN(CCCNC(=O)c3cccc(-n4nnc5cccnc54)c3C)CC2)cc1 [Compound 3BZ],< 4.70
13,Cc1c(C(=O)N2CCN(c3cccc(Cl)c3)CC2)cccc1-n1nnc2cccnc21 [Compound 3B],> 6.00
14,Cc1ccc(CN2CCC(CNC(=O)c3cccc(-n4nnc5cccnc54)c3C)CC2)cc1 [Compound 3CA],< 4.70
15,Cc1c(C(=O)NCCCN2CCCC(C)C2)cccc1-n1nnc2cccnc21 (centres unmarked) [Compound 3CB],< 4.70
16,Cc1c(C(=O)NCCCN2CCN(c3ccc(F)cc3)CC2)cccc1-n1nnc2cccnc21 [Compound 3CC],< 4.70
17,Cc1c(C(=O)NCCCN2CCN(Cc3ccccc3)CC2)cccc1-n1nnc2cccnc21 [Compound 3CD],< 4.70
18,Cc1c(C(=O)NCCCN2CCC(N3CCCCC3)CC2)cccc1-n1nnc2cccnc21 [Compound 3CE],< 4.70
19,Cc1c(C(=O)NCCN(C)C2CCCCC2)cccc1-n1nnc2cccnc21 [Compound 3CF],< 4.70
20,Cc1c(C(=O)NCc2ccc(N(C)C)cc2)cccc1-n1nnc2cccnc21 [Compound 3CG],< 4.70
